A short description of data set [1]: Pharmacokinetics of MNTX in rat plasma after oral gavage (LC/MS/MS). The following applies: male, Sprague-Dawley, in vivo, 250 mg/kg; for AUC(0-t) / Cmax / Tmax: rats, 250 mg/kg oral. The procedure:
Animals, MNTX Administration, and Blood Collection.
The experimental protocol was approved by the Institutional Animal Care and Use Committee. Male Sprague-Dawley rats (190-200 g) were obtained from Luye Pharma (Yantai, China) (Wang et al., 2010). Rats were allowed to acclimatize in environmentally controlled quarters (24±2° C. and a 12:12 h light-dark cycle). The rats were fasted for 12 h prior to the experiments.
Ten rats received test compounds via oral gavage. […] Venous blood samples were drawn from the ocular venous plexus at 0, 10, 20, 30, 45, 60, 90, 120, 150, 180, 240, 300, 420 and 540 min. The samples were placed into heparinized tubes and centrifuged at 1500×g for 5 min. The plasma samples were immediately stored in a freezer (−20° C.) for the pending assay.
Plasma Sample Processing.
A […] plasma sample was transferred to a 1.5 mL microcentrifuge tube. Then 0.2 mL of acetonitrile and […] of ketamine hydrochloride (I.S.) were mixed with the plasma sample and vortexed for 5 min before being centrifuged at 1500×g for 5 min. The supernatant was transferred to another tube and dried under a gentle flow of nitrogen. The residue was dissolved in […] of mobile phase, and then centrifuge at 15,000×g for 10 min. Lastly, 5 μL of supernatant was injected into the LC/MS/MS system for analysis.
Determination of MNTX Concentration by LC/MS/MS.
The concentrations of MNTX in rat plasma samples were determined with LC/MS/MS. MNTX plasma levels and the internal standard determined by LC/MS/MS were tested at the time points listed above. The assay was performed using an HPLC system with an Agilent 1100 pump, an Agilent 1100 auto sampler, and a Hanbang C18 column (150 mm×2.1 mm, 5 μm) with a guard column (Wang et al., 2011). For the mobile phase, methanol/water (60/40, containing 0.1% of acetic acid) was pumped at a flow rate of 0.2 mL/min. The samples were stored at 4° C. in the auto sampler before 5 μL was injected into the column. The detector was an API 4000 triple quadruple mass (MS) spectrometer (Applied Biosystems, Foster City, Calif.), and Analyst™ software version 4.1 was used for MS control and spectral processing. Using electrospray ionization (ESI) in positive ion mode, the MS parameters were optimized as follows: heater temperature, 350° C.; ion source voltage, 4000V. Multiple reaction monitoring was used, and the selected single charged precursor-production ion pairs were m/z 356.08→226.95 for MNTX and m/z 237.93→125.05 for ketamine hydrochloride.
Data analysis. Pharmacokinetic data were analyzed by software (Kinetic 4.4; Thermo Electron Co., Waltham. Mass.). All data were expressed as the mean±standard error (S.E.). A one-way ANOVA determined whether the results had statistical significance. The level of statistical significance was set at P<0.05.

The conditions of data set [2]: white crystalline powder, typically bromide salt, commercially provided; cited from earlier work.

What is called AUC is the area under the concentration-time curve, a measure of exposure. Usually half-life stands for how long it takes for the measured level to halve. The term AUC(0-t) denotes exposure summed from dosing to a finite time, without extrapolation to infinity. Low values mean less exposure, high ones more exposure. As usually defined, the Cmax is the highest concentration seen after dosing. As usually defined, the Tmax is the time at which the peak concentration occurs.

In the case of `C[N+]1(CC2CC2)CCC23c4c5ccc(O)c4OC2C(=O)CCC3(O)C1C5` (centres unmarked) [MNTX, methylnaltrexone bromide], in data set [1], the exposure (AUC) was determined as 1060 ng·h/mL. Moreover, the half-life in data set [1] came to 4.32 h. Besides, the exposure AUC(0-t) in data set [1] (AUC0-540 min, 0 to 540 min, mean±S.E.) was 1410 ± 448 ng·h/mL; in data set [1] (First peak AUC0-150 min, 0 to 150 min, n=5, mean), 341 ± 94.5 ng·h/mL. Moreover, the Cmax in data set [1] (First peak Cmax, first plasma peak, n=5, mean) is 276 ± 102 ng/mL; in data set [1] (Second peak Cmax, second plasma peak, n=5, mean), 448 ± 126 ng/mL; in data set [1] (peak plasma concentration (Cmax), overall profile, mean±S.E.), 448 ± 126 ng/mL. The Tmax is 2 h in data set [1] (First peak Tmax, first plasma peak); 3 h in data set [1] (Second peak Tmax, second plasma peak); 3 h in data set [1] (time to peak plasma concentration (Tmax), overall profile). Also, in data set [2], the solubility in water entry is listed as “freely soluble in water”.

The values above are taken from US20150190523A1, “BIOAVAILABILITY OF ORAL METHYLNALTREXONE INCREASES WITH A PHOSPHATIDYLCHOLINE-BASED FORMULATION” (The University of Chicago, priority 2012, published 2015).
